# Measured values reported in patent US20120022151A1, “METHOD FOR PREVENTING DAMAGE TO NUCLEAR MEMBRANE OF SKIN CELL BY ADMINISTERING AMENTOFLAVONE” (Amorepacific Corporation, priority 2010, published 2012).
# Experiments:
# Type in all cases: cell-based
# cells of the subject = test: Immunofluorescence staining of lamin A: nuclear damage after UVB radiation; details: 5 μM amentoflavone prior to UVB 100 mJ/cm^2; cultured 6 days; cells of the subject (FIG. 3)
# Procedure: (§1) Cells of subjects […] were distributed in a 4-well chamber slide holding a medium prepared by adding 1% LSGS and 100 IU penicillin G to 106 medium at 100,000 cells/well. The cells were divided into a UVB-untreated negative control group, a UVB-treated group and a UVB/amentoflavone-treated group. The next day, the medium was replaced with 106 medium containing 1%
# (§2) FBS. The amentoflavone-treated group was treated with 5 μM amentoflavone prior to UVB radiation. 24 hours later, after washing the well with PBS, UVB was irradiated at 100 mJ/cm^2 to the test groups. Then, after treating again with 106 medium containing 1% FBS, the cells were cultured at 37° C. for 6 days. The treated cells were subjected to western blot and immunofluorescence staining. For western blot, the cells were lysed using RIPA buffer (Sigma) and proteins were quantitated according to the Lowry's method. 10 μg of each protein was run on 4-12% Nupage gel (Invitrogen) and then transferred to NC membrane. The membrane was blocked with 5% BSA and reacted O/N at 4° C. with the lamin A mutant antibodies, progerin (Abcam) and p-H2AX (Millipore), diluted at 1:300 and 1:200, respectively, with 5% BSA. […] Then, after washing 3 times for 10 minutes with PBST, bands were detected using ECL and LAS3000. […]
# phosphorylated H2AX = test: Immunofluorescence staining of phosphorylated H2AX after UVB radiation; details: 5 μM amentoflavone prior to UVB 100 mJ/cm^2; cultured 6 days; cells of the subject (FIG. 3)
# Procedure: as §1, §2
# [1] = test system: progerin (mutant lamin A); test: Western blot of progerin (mutant lamin A) induced by UVB radiation; details: 5 μM amentoflavone prior to UVB 100 mJ/cm^2; cultured 6 days; cell extract from subject (FIG. 2)
# Procedure: as §1
# FBS. The amentoflavone-treated group was treated with 5 μM amentoflavone prior to UVB radiation. 24 hours later, after washing the well with PBS, UVB was irradiated at 100 mJ/cm^2 to the test groups. Then, after treating again with 106 medium containing 1% FBS, the cells were cultured at 37° C. for 6 days. The treated cells were subjected to western blot and immunofluorescence staining. For western blot, the cells were lysed using RIPA buffer (Sigma) and proteins were quantitated according to the Lowry's method. 10 μg of each protein was run on 4-12% Nupage gel (Invitrogen) and then transferred to NC membrane. The membrane was blocked with 5% BSA and reacted O/N at 4° C. with the lamin A mutant antibodies, progerin (Abcam) and p-H2AX (Millipore), diluted at 1:300 and 1:200, respectively, with 5% BSA. […] Then, after washing 3 times for 10 minutes with PBST, bands were detected using ECL and LAS3000.
compound,measurement,setting,value
O=c1cc(-c2ccc(O)c(-c3c(O)cc(O)c4c(=O)cc(-c5ccc(O)cc5)oc34)c2)oc2cc(O)cc(O)c12 [Amentoflavone],"structure of the cell nucleus (nuclear damage caused by lamin A defects), immunofluorescence",cells of the subject,retained
same,"expression of phosphorylated H2AX, immunofluorescence",phosphorylated H2AX,reduced
same,"UVB-induced increase of progerin (mutant lamin A), western blot",[1],decreased
